Reference: US8188077B2, “Apoptosis-inducing agents for the treatment of cancer and immune and autoimmune diseases” (Abbott Laboratories, priority 2010, dated 2012)

These compounds were tested against T1, Bcl-2 protein (Homo sapiens, UniProt P10415, DELINS35-91DVEENRTEAPEGTESE, form not given) (assay: Bcl-2 fluorescence polarization assay (FPA) binding). Settings: 10 nM Bcl-2 protein, 1 nM fluorescein-labeled BAX peptide, room temperature, read-out: Bcl-2 FPA 11pt Ki.
T1 construct: fused on or other part: Bcl-xL (Q07817) residues 29-44 stand in place of Bcl-2's own unstructured loop 35-91; The C-terminal membrane anchor (208-239) is absent
T1 sequence (P10415 with tags, fused parts or gaps with the stated changes): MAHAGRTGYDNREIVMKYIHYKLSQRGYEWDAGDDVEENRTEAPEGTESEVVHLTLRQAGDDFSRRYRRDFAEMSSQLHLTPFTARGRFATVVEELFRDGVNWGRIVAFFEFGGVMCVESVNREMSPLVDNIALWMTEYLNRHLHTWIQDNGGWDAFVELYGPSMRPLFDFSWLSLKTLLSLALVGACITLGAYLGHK
Description: Assays for the inhibition of Bcl-2 were performed in 96-well microtiter plates. Compounds of the instant invention were diluted in DMSO to concentrations between […] and 10 pM and introduced into each well of the plate. A mixture totaling 125 µL per well of assay buffer (20 mM phosphate buffer (pH 7.4), 1 mM EDTA, 0.05% PF-68), 10 nM of Bcl-2 protein (prepared according to the procedure described in PNAS 2001, 98, 3012-3017), 1 nM fluorescein-labeled BAX peptide (prepared in-house), and the DMSO solution of the compound of the instant invention was shaken for 2 minutes and placed in a LJL Analyst (LJL Bio Systems, CA. Polarization was measured at room temperature using a continuous Fluorescein lamp (excitation 485 nm, emission 530 nm). Ki values were calculated using Microsoft Excel.

First: O=C(NS(=O)(=O)c1ccc(NCC2CCOCC2)c([N+](=O)[O-])c1)c1ccc(N2CCN(Cc3ccccc3C3=CC4CC3C3CCCC43)CC2)cc1 (centres unmarked) [Example 23, 4-(4-{2-[2,3,3a,4,7,7a-hexahydro-1H-4,7-methanoinden-5-yl]benzyl}piperazin-1-yl)-N-({3-nitro-4-[(tetrahydro-2H-pyran-4-ylmethyl)amino]phenyl}sulfonyl)benzamide]
Second: CC1C2CC(C=C2c2ccccc2CN2CCN(c3ccc(C(=O)NS(=O)(=O)c4ccc(NCC5CCOCC5)c([N+](=O)[O-])c4)cc3)CC2)C1(C)C (centres unmarked) [Example 28, N-({3-nitro-4-[(tetrahydro-2H-pyran-4-ylmethyl)amino]phenyl}sulfonyl)-4-(4-{2-[5,5,6-trimethylbicyclo[2.2.1]hept-2-en-2-yl]benzyl}piperazin-1-yl)benzamide]
The Ki of the first is lower: less than 20 nM for the first, 29.6 nM for the second.

Going from `O=C(NS(=O)(=O)c1ccc(NCC2CCOCC2)c([N+](=O)[O-])c1)c1ccc(N2CCN(Cc3ccccc3-c3cn(C45CC6CC(CC(C6)C4)C5)nc3C(=O)N(c3ccccc3)c3ccccc3)CC2)cc1` [Example 24, 1-[adamantan-1-yl]-4-{2-[(4-{4-[({3-nitro-4-[(tetrahydro-2H-pyran-4-ylmethyl)amino]phenyl}sulfonyl)carbamoyl]phenyl}piperazin-1-yl)methyl]phenyl}-N,N-diphenyl-1H-pyrazole-3-carboxamide] to `Cc1cc(-c2ccccc2CN2CCN(c3ccc(C(=O)NS(=O)(=O)c4ccc(NCC5CCOCC5)c([N+](=O)[O-])c4)cc3)CC2)c2nc(C34CC5CC(CC(C5)C3)C4)cn2c1` [Example 25, 4-(4-{2-[2-(adamantan-1-yl)-6-methylimidazo[1,2-a]pyridin-8-yl]benzyl}piperazin-1-yl)-N-({3-nitro-4-[(tetrahydro-2H-pyran-4-ylmethyl)amino]phenyl}sulfonyl)benzamide], the Ki falls from 2270 nM to 979 nM (2.3-fold).

Compared with `CC1(C)[C@H]2CC=C(c3ccccc3CN3CCN(c4ccc(C(=O)NS(=O)(=O)c5ccc(NCC6CCOCC6)c([N+](=O)[O-])c5)cc4)CC3)[C@@H]1C2` [Example 27, 4-(4-{2-[(1R,5S)-6,6-dimethylbicyclo[3.1.1]hept-2-en-2-yl]benzyl}piperazin-1-yl)-N-({3-nitro-4-[(tetrahydro-2H-pyran-4-ylmethyl)amino]phenyl}sulfonyl)benzamide], `CC1(C)C2C=C(c3ccccc3CN3CCN(c4ccc(C(=O)NS(=O)(=O)c5ccc(NCC6CCOCC6)c([N+](=O)[O-])c5)cc4)CC3)C1(C(=O)O)CC2` (centres unmarked) [Example 39, 7,7-dimethyl-2-{2-[(4-{4-[({3-nitro-4-[(tetrahydro-2H-pyran-4-ylmethyl)amino]phenyl}sulfonyl)carbamoyl]phenyl}piperazin-1-yl)methyl]phenyl}bicyclo[2.2.1]hept-2-ene-1-carboxylic Acid] is 110-fold higher in Ki: 27.1 nM for the first, 2910 nM for the second. The first binds more tightly here.

First: O=C(NS(=O)(=O)c1ccc(NCC2CCOCC2)c([N+](=O)[O-])c1)c1ccc(N2CCN(Cc3ccccc3-c3ccc(C(=O)NC4CCCCCCC4)o3)CC2)cc1 [Example 29, N-cyclooctyl-5-{2-[(4-{4-[({3-nitro-4-[(tetrahydro-2H-pyran-4-ylmethyl)amino]phenyl}sulfonyl)carbamoyl]phenyl}piperazin-1-yl)methyl]phenyl}-2-furamide]
Second: CC1(C)C2C=C(c3ccccc3CN3CCN(c4ccc(C(=O)NS(=O)(=O)c5ccc(NCC6CCOCC6)c([N+](=O)[O-])c5)cc4)CC3)C1(C(=O)NC1CC1)CC2 (centres unmarked) [Example 38, N-cyclopropyl-7,7-dimethyl-2-{2-[(4-{4-[({3-nitro-4-[(tetrahydro-2H-pyran-4-ylmethyl)amino]phenyl}sulfonyl)carbamoyl]phenyl}piperazin-1-yl)methyl]phenyl}bicyclo[2.2.1]hept-2-ene-1-carboxamide]
The Ki of the first is 2.4-fold higher: 354 nM for the first, 149 nM for the second. The second binds more tightly here.

First: CC1(C)C2C=C(c3ccccc3CN3CCN(c4ccc(C(=O)NS(=O)(=O)c5ccc(NCC6CCOCC6)c([N+](=O)[O-])c5)cc4)CC3)C1(C(=O)NCc1ccccc1)CC2 (centres unmarked) [Example 30, N-benzyl-7,7-dimethyl-2-{2-[(4-{4-[({3-nitro-4-[(tetrahydro-2H-pyran-4-ylmethyl)amino]phenyl}sulfonyl)carbamoyl]phenyl}piperazin-1-yl)methyl]phenyl}bicyclo[2.2.1]hept-2-ene-1-carboxamide]
Second: CC1(C)C2C=C(c3ccccc3CN3CCN(c4ccc(C(=O)NS(=O)(=O)c5ccc(NCC6CCOCC6)c([N+](=O)[O-])c5)cc4)CC3)C1(C(=O)Nc1ccccc1)CC2 (centres unmarked) [Example 35, 7,7-dimethyl-2-{2-[(4-{4-[({3-nitro-4-[(tetrahydro-2H-pyran-4-ylmethyl)amino]phenyl}sulfonyl)carbamoyl]phenyl}piperazin-1-yl)methyl]phenyl}-N-phenylbicyclo[2.2.1]hept-2-ene-1-carboxamide]
The Ki of the first is 14-fold higher: 295 nM for the first, 21.7 nM for the second.

First: CN1[C@@H]2CC[C@H]1CC(Nc1ccccc1CN1CCN(c3ccc(C(=O)NS(=O)(=O)c4ccc(NCC5CCOCC5)c([N+](=O)[O-])c4)cc3)CC1)C2 (stereo partly drawn) [Example 31, 4-[4-(2-{[(1R,5S)-8-methyl-8-azabicyclo[3.2.1]oct-3-yl]amino}benzyl)piperazin-1-yl]-N-({3-nitro-4-[(tetrahydro-2H-pyran-4-ylmethyl)amino]phenyl}sulfonyl)benzamide]
Second: C[C@@H]1[C@@H](Nc2ccccc2CN2CCN(c3ccc(C(=O)NS(=O)(=O)c4ccc(NCC5CCOCC5)c([N+](=O)[O-])c4)cc3)CC2)C[C@@H]2C[C@H]1C2(C)C [Example 32, N-({3-nitro-4-[(tetrahydro-2H-pyran-4-ylmethyl)amino]phenyl}sulfonyl)-4-[4-(2-{[(1R,2S,3S,5S)-2,6,6-trimethylbicyclo[3.1.1]hept-3-yl]amino}benzyl)piperazin-1-yl]benzamide]
The Ki of the first is 2.9-fold lower: 31.9 nM for the first, 91.9 nM for the second.

First: O=C(NS(=O)(=O)c1ccc(NCC2CCOCC2)c([N+](=O)[O-])c1)c1ccc(N2CCN(Cc3ccccc3N3CC4CCC(CC4)C3)CC2)cc1 [Example 33, 4-(4-{2-[3-azabicyclo[3.2.2]non-3-yl]benzyl}piperazin-1-yl)-N-({3-nitro-4-[(tetrahydro-2H-pyran-4-ylmethyl)amino]phenyl}sulfonyl)benzamide]
Second: O=C(NS(=O)(=O)c1ccc(NCC2CCOCC2)c([N+](=O)[O-])c1)c1ccc(N2CCN(Cc3ccccc3C3=CC4CC5CC(C4)CC3C5)CC2)cc1 [Example 34, N-({3-nitro-4-[(tetrahydro-2H-pyran-4-ylmethyl)amino]phenyl}sulfonyl)-4-(4-{2-[tricyclo[4.3.1.1^3,8]undec-4-en-4-yl]benzyl}piperazin-1-yl)benzamide]
The Ki of the first is lower: less than 20 nM for the first, 47.7 nM for the second. The first binds more tightly here.

`C[C@@H]1[C@@H](NC(=O)C23CCC(C=C2c2ccccc2CN2CCN(c4ccc(C(=O)NS(=O)(=O)c5ccc(NCC6CCOCC6)c([N+](=O)[O-])c5)cc4)CC2)C3(C)C)C[C@H]2C[C@@H]1C2(C)C` [Example 36, 7,7-dimethyl-2-{2-[(4-{4-[({3-nitro-4-[(tetrahydro-2H-pyran-4-ylmethyl)amino]phenyl}sulfonyl)carbamoyl]phenyl}piperazin-1-yl)methyl]phenyl}-N-[(1S,2S,3S,5R)-2,6,6-trimethylbicyclo[3.1.1]hept-3-yl]bicyclo[2.2.1]hept-2-ene-1-carboxamide] and `CC1(C)C2C=C(c3ccccc3CN3CCN(c4ccc(C(=O)NS(=O)(=O)c5ccc(NCC6CCOCC6)c([N+](=O)[O-])c5)cc4)CC3)C1(C(=O)NCC13CC4CC(CC(C4)C1)C3)CC2` (centres unmarked) [Example 37, N-(adamantan-1-ylmethyl)-7,7-dimethyl-2-{2-[(4-{4-[({3-nitro-4-[(tetrahydro-2H-pyran-4-ylmethyl)amino]phenyl}sulfonyl)carbamoyl]phenyl}piperazin-1-yl)methyl]phenyl}bicyclo[2.2.1]hept-2-ene-1-carboxamide] are within 1.5-fold of each other in Ki: 121 nM for the first, 165 nM for the second.

First: O=C(NS(=O)(=O)c1ccc(NCC2CCOCC2)c([N+](=O)[O-])c1)c1ccc(N2CCN(Cc3ccccc3-c3ccc(CN4C5CCCC4CC5)s3)CC2)cc1 [Example 40, 4-[4-(2-{5-[8-azabicyclo[3.2.1]oct-8-ylmethyl]-2-thienyl}benzyl)piperazin-1-yl]-N-({3-nitro-4-[(tetrahydro-2H-pyran-4-ylmethyl)amino]phenyl}sulfonyl)benzamide]
Second: O=C(NS(=O)(=O)c1ccc(NC2CCOCC2)c([N+](=O)[O-])c1)c1ccc(N2CCN(C(=O)C34CC5CC(CC(C5)C3)C4)CC2)cc1 [Example 41, 4-{4-[adamantan-1-ylcarbonyl]piperazin-1-yl}-N-{[3-nitro-4-(tetrahydro-2H-pyran-4-ylamino)phenyl]sulfonyl}benzamide]
The Ki of the first is 95-fold lower: 54.7 nM for the first, 5190 nM for the second.

Going from `O=C(NS(=O)(=O)c1ccc(NC2CCOCC2)c([N+](=O)[O-])c1)c1ccc(N2CCN(C(=O)C3C4CC5CC(C4)CC3C5)CC2)cc1` (centres unmarked) [Example 42, 4-{4-[adamantan-2-ylcarbonyl]piperazin-1-yl}-N-{[3-nitro-4-(tetrahydro-2H-pyran-4-ylamino)phenyl]sulfonyl}benzamide] to `O=C(NS(=O)(=O)c1ccc(NC2CCOCC2)c([N+](=O)[O-])c1)c1ccc(N2CC3CC2CN3C(=O)C23CC4CC(CC(C4)C2)C3)cc1` (centres unmarked) [Example 43, 4-{5-[adamantan-1-ylcarbonyl]-2,5-diazabicyclo[2.2.1]hept-2-yl}-N-{[3-nitro-4-(tetrahydro-2H-pyran-4-ylamino)phenyl]sulfonyl}benzamide], the Ki rises from 2480 nM to greater than 6250 nM. The first binds more tightly here.
